Measurements reported in PMC3660600, “Brevilin A, a Novel Natural Product, Inhibits Janus Kinase Activity and Blocks STAT3 Signaling in Cancer Cells” (PLoS ONE, 2013).

Columns and labels:
c-Src = c-Src (Homo sapiens, UniProt P12931); assay: phosphotyrosine Western blot of immunoprecipitated Flag-c-Src from treated HEK293T cells ([…], […] h); type: cell-based
Tyk2 = target: T1, Tyk2 (Homo sapiens, UniProt P29597); assay: in vitro kinase assay with purified Tyk2-JH1 and recombinant hSTAT3 substrate, Western blot pTyr705-STAT3 ([…]); type: biochemical
T1 construct: JH1 tyrosine kinase domain, C-terminal Flag-His tag, purified from HEK293T
T1 sequence (P29597 880-1187 limits assumed): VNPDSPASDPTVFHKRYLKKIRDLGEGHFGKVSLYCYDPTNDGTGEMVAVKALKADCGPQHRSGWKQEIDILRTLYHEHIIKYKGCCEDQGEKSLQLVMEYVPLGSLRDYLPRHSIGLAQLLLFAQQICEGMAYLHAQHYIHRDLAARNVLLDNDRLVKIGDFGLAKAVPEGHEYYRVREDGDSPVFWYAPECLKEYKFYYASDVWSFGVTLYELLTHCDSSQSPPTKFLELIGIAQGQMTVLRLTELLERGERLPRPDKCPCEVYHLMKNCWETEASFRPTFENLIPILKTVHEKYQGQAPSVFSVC

JAK1 = target: T2, JAK1 (Homo sapiens, UniProt P23458); assay: total tyrosine, STAT3 and STAT1 phosphorylation in HEK293T over-expressing JAK1-JH1, Western blot; type: cell-based
T2 construct: JH1 domain

JAK3 = target: T3, JAK3 (Homo sapiens, UniProt P52333); assay: total tyrosine, STAT3 and STAT1 phosphorylation in HEK293T over-expressing JAK3-JH1, Western blot; type: cell-based
T3 construct: JH1 domain
T3 sequence (P52333 781-1124 limits assumed): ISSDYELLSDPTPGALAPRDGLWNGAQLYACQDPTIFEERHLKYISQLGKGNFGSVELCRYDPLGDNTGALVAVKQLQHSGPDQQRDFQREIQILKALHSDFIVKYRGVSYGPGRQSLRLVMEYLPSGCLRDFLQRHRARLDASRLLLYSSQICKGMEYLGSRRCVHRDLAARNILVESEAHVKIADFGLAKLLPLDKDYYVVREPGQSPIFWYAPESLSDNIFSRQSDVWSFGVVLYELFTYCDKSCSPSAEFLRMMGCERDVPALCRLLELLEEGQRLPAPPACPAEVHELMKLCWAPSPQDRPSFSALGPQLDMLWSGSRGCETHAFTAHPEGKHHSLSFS

T2 sequence (P23458 875-1153 limits assumed): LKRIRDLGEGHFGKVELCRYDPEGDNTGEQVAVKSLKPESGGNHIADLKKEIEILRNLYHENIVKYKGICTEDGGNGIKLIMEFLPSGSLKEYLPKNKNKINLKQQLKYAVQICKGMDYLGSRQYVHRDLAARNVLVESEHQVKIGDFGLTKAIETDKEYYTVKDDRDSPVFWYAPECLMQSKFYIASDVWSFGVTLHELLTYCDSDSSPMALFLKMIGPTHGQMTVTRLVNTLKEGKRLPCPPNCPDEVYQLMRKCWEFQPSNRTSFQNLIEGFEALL
Sequence of c-Src (P12931 2-536): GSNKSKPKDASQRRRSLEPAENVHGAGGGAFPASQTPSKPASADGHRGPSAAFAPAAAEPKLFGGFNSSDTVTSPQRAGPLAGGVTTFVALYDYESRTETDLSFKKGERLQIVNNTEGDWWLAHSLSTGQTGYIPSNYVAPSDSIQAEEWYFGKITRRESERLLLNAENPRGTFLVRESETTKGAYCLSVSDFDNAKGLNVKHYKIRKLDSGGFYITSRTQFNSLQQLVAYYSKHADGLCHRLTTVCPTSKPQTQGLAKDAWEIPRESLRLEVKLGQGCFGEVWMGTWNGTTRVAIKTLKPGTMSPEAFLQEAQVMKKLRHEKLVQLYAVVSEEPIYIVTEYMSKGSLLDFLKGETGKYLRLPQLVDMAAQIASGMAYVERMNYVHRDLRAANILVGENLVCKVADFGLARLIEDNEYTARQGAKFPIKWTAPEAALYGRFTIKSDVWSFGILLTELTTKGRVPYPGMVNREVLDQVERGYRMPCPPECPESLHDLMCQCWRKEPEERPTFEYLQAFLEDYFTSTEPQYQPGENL

**Q.** `Cc1cc(Nc2ncc3cc(-c4c(Cl)cccc4Cl)c(=O)n(C)c3n2)ccc1F` [PD-180970] was tested. Which “phosphotyrosine Western blot of immunoprecipitated Flag-c-Src from treated HEK29” value (c-Src) did it give?
**A.** IP results showed that PD180970 was able to decrease Src phosphorylation while Brevilin A was not

**Q.** What does the source list for `C/C=C(/C)C(=O)O[C@H]1[C@@H]2[C@H](C)C(=O)O[C@@H]2C[C@@H](C)[C@@H]2C=CC(=O)[C@]21C` [Brevilin A]?
**A.** in vitro kinase assay with purified Tyk2-JH1 and recombinant hSTAT3 substrate, W (Tyk2): Western-Blot showed that Brevilin A inhibited Tyk2-JH1 kinase activity directly; IC50 (JAK1): IC50 measurements of four JAKs-JH1 truncated kinases.; IC50 (JAK3): IC50 measurements of four JAKs-JH1 truncated kinases.
